# Data: patent US8101550B2, “Anthranilic acid diamide derivative with hetero-aromatic and hetero-cyclic substituents” (Bayer Cropscience AG, priority 2006, dated 2012)
# Assay: log P determination by HPLC on reverse-phase column (EEC Directive 79/831 Annex V.A8)
# Type: physicochemical
# Conditions: HPLC on reverse-phase column
# Protocol: The log P values stated in the foregoing tables and preparation examples are determined in accordance with EEC Directive 79/831 Annex V.A8 by means of HPLC (High Performance Liquid Chromatography) on a reverse-phase column (C 18). Temperature: 43° C.
# The determination by LC-MS in the acidic range takes place at a pH of 2.7 using 0.1% aqueous formic acid and acetonitrile (containing 0.1% formic acid) as eluents; linear gradient from 10% acetonitrile to 95% acetonitrile.
# Calibration is with unbranched alkan-2-ones (having 3 to 16 carbon atoms) of known log P value (log P values determined from the retention times by linear interpolation between two successive alkanones).
row,Structure (SMILES),logP
1,CNC(=O)c1cc(Cl)cc(C)c1NC(=O)c1cc(Cn2nnn(-c3ccc(Cl)cc3)c2=O)nn1-c1ncccc1Cl [I-1-38],3.28
2,CNC(=O)c1cc(Cl)cc(C)c1NC(=O)c1cc(Cn2nc(C(F)(F)F)nc2C(F)(F)F)nn1-c1c(Cl)cccc1Cl [I-1-41],4.13
3,CNC(=O)c1cc(Cl)cc(C)c1NC(=O)c1cc(Cn2cc(C(F)(F)F)cn2)nn1-c1ncccc1Cl [I-1-42],2.76
4,Cc1cc(Cl)cc(C(=O)NC(C)C)c1NC(=O)c1cc(Cn2cc(C(F)(F)F)cn2)nn1-c1ncccc1Cl [I-1-43],3.20
5,CNC(=O)c1cc(Cl)cc(C)c1NC(=O)c1cc(Cn2ccc(C(F)(F)F)n2)nn1-c1ncccc1Cl [I-1-44],2.92
6,CNC(=O)c1cc(Cl)cc(C)c1NC(=O)c1cc(Cn2cc(I)cn2)nn1-c1ncccc1Cl [I-1-45],2.67
7,Cc1cc(Cl)cc(C(=O)NC2CC2)c1NC(=O)c1cc(Cn2cc(C(F)(F)C(F)(F)F)c(C(F)(F)C(F)(F)F)n2)nn1-c1ncccc1Cl [I-1-46],4.58
8,Cc1cc(Cl)cc(C(=O)NCC#N)c1NC(=O)c1cc(Cn2cc(C(F)(F)C(F)(F)F)c(C(F)(F)C(F)(F)F)n2)nn1-c1ncccc1Cl [I-1-47],4.31
9,Cc1cc(Cl)cc(C(N)=O)c1NC(=O)c1cc(Cn2cc(C(F)(F)C(F)(F)F)c(C(F)(F)C(F)(F)F)n2)nn1-c1ncccc1Cl [I-1-48],4.15
10,Cc1cc(Cl)cc(C(=O)NCC#N)c1NC(=O)c1cc(Cn2nc(C(F)(F)F)nc2C(F)(F)F)nn1-c1ncccc1Cl [I-1-49],3.97
11,Cc1cc(Cl)cc(C(N)=O)c1NC(=O)c1cc(Cn2nc(C(F)(F)F)nc2C(F)(F)F)nn1-c1ncccc1Cl [I-1-50],3.88
12,Cc1cc(Cl)cc(C(=O)NC(C)C)c1NC(=O)c1cc(Cn2nnn(-c3c(C)cccc3Cl)c2=O)nn1-c1ncccc1Cl [I-1-51],3.52
13,Cc1cc(Br)cc(C(=O)NC2CC2)c1NC(=O)c1cc(Cn2cc(C(F)(F)C(F)(F)F)c(C(F)(F)C(F)(F)F)n2)nn1-c1ncccc1Cl [I-1-52],4.59
14,Cc1cc(Br)cc(C(N)=O)c1NC(=O)c1cc(Cn2cc(C(F)(F)C(F)(F)F)c(C(F)(F)C(F)(F)F)n2)nn1-c1ncccc1Cl [I-1-53],4.17
15,Cc1cc(Cl)cc(C(=O)NC2CC2)c1NC(=O)c1cc(Cn2nc(C(F)(F)F)nc2C(F)(F)F)nn1-c1ncccc1Cl [I-1-54],3.61
16,Cc1cc(Cl)cc(C(=O)NCC#N)c1NC(=O)c1cc(Cn2nc(C(F)(F)F)nc2C(F)(F)F)nn1-c1ncccc1Cl [I-1-55],3.40
17,Cc1cc(Br)cc(C(=O)NCC#N)c1NC(=O)c1cc(Cn2nc(C(F)(F)F)nc2C(F)(F)F)nn1-c1ncccc1Cl [I-1-56],3.44
18,Cc1cc(Br)cc(C(=O)NC2CC2)c1NC(=O)c1cc(Cn2nc(C(F)(F)F)nc2C(F)(F)F)nn1-c1ncccc1Cl [I-1-57],3.67
19,CNC(=O)c1cc(Br)cc(C)c1NC(=O)c1cc(Cn2nc(C(F)(F)F)cc2C(F)(F)F)nn1-c1ncccc1Cl [I-1-58],3.76
20,Cc1cc(Br)cc(C(=O)NCC#N)c1NC(=O)c1cc(Cn2nc(C(F)(F)F)cc2C(F)(F)F)nn1-c1ncccc1Cl [I-1-59],3.65
21,Cc1cc(Br)cc(C(=O)NC2CC2)c1NC(=O)c1cc(Cn2nc(C(F)(F)F)cc2C(F)(F)F)nn1-c1ncccc1Cl [I-1-60],3.91
22,Cc1cc(Br)cc(C(N)=O)c1NC(=O)c1cc(Cn2nc(C(F)(F)F)cc2C(F)(F)F)nn1-c1ncccc1Cl [I-1-61],3.53
23,CNC(=O)c1cc(Cl)cc(C)c1NC(=O)c1cc(Cn2cc(I)c(C(F)(F)F)n2)nn1-c1ncccc1Cl [I-1-62],3.41
24,Cc1cc(Cl)cc(C(=O)NC(C)C)c1NC(=O)c1cc(Cn2cc(I)c(C(F)(F)F)n2)nn1-c1ncccc1Cl [I-1-63],3.85
25,CNC(=O)c1cc(Cl)cc(C)c1NC(=O)c1cc(Cn2cc(C(F)(F)C(F)(F)F)cn2)nn1-c1ncccc1Cl [I-1-64],3.21
26,Cc1cc(Cl)cc(C(=O)NC(C)C)c1NC(=O)c1cc(Cn2cc(C(F)(F)C(F)(F)F)cn2)nn1-c1ncccc1Cl [I-1-65],3.67

row,Structure (SMILES),logP
1,CNC(=O)c1cc(Cl)cc(C)c1NC(=O)c1cc(Cn2cc(Br)c(C(F)(F)F)n2)nn1-c1ncccc1Cl [I-1-66],3.38
2,Cc1cc(Cl)cc(C(=O)NC(C)C)c1NC(=O)c1cc(Cn2cc(Br)c(C(F)(F)F)n2)nn1-c1ncccc1Cl [I-1-67],3.78
3,CNC(=O)c1cc(Br)cc(C)c1NC(=O)c1cc(Cn2cc(Br)c(C(F)(F)F)n2)nn1-c1ncccc1Cl [I-1-68],3.46
4,Cc1cc(Br)cc(C(=O)NC(C)C)c1NC(=O)c1cc(Cn2cc(Br)c(C(F)(F)F)n2)nn1-c1ncccc1Cl [I-1-69],3.92
5,CNC(=O)c1cc(Br)cc(C)c1NC(=O)c1cc(Cn2cc(Cl)c(C(F)(F)C(F)(F)F)n2)nn1-c1ncccc1Cl [I-1-70],3.94
6,Cc1cc(Br)cc(C(=O)NC(C)C)c1NC(=O)c1cc(Cn2cc(Cl)c(C(F)(F)C(F)(F)F)n2)nn1-c1ncccc1Cl [I-1-71],4.40
7,Cc1cc(Br)cc(C(=O)NC2CC2)c1NC(=O)c1cc(Cn2cc(Cl)c(C(F)(F)C(F)(F)F)n2)nn1-c1ncccc1Cl [I-1-72],4.14
8,Cc1cc(Br)cc(C(=O)NCC#N)c1NC(=O)c1cc(Cn2cc(Cl)c(C(F)(F)C(F)(F)F)n2)nn1-c1ncccc1Cl [I-1-73],3.87
9,Cc1cc(Br)cc(C(N)=O)c1NC(=O)c1cc(Cn2cc(Cl)c(C(F)(F)C(F)(F)F)n2)nn1-c1ncccc1Cl [I-1-74],3.68
10,CSC[C@H](C)NC(=O)c1cc(Cl)cc(C)c1NC(=O)c1cc(Cn2nc(C(F)(F)F)nc2C(F)(F)F)nn1-c1ncccc1Cl [I-1-75],4.04
11,CCNC(=O)OC[C@H](C)NC(=O)c1cc(Cl)cc(C)c1NC(=O)c1cc(Cn2nc(C(F)(F)F)nc2C(F)(F)F)nn1-c1ncccc1Cl [I-1-77],3.58
12,CNC(=O)OC[C@H](C)NC(=O)c1cc(Cl)cc(C)c1NC(=O)c1cc(Cn2nc(C(F)(F)F)nc2C(F)(F)F)nn1-c1ncccc1Cl [I-1-78],3.36
13,Cc1cc(Cl)cc(C(=O)NCC#N)c1NC(=O)c1cc(Cn2nc(C(F)(F)F)nc2C(F)(F)F)nn1-c1ncccc1Cl [I-1-79],3.62
14,CNC(=O)c1cc(Br)cc(C)c1NC(=O)c1cc(Cn2ccc(C(F)(F)F)n2)nn1-c1ncccc1Cl [I-1-80],2.99
15,Cc1cc(Br)cc(C(=O)NC(C)C)c1NC(=O)c1cc(Cn2ccc(C(F)(F)F)n2)nn1-c1ncccc1Cl [I-1-81],3.46
16,Cc1cc(Br)cc(C(=O)NC2CC2)c1NC(=O)c1cc(Cn2ccc(C(F)(F)F)n2)nn1-c1ncccc1Cl [I-1-82],3.18
17,Cc1cc(Br)cc(C(N)=O)c1NC(=O)c1cc(Cn2ccc(C(F)(F)F)n2)nn1-c1ncccc1Cl [I-1-83],2.75
18,CSC[C@H](C)NC(=O)c1cccc(C)c1NC(=O)c1cc(Cn2nc(C(F)(F)F)nc2C(F)(F)F)nn1-c1ncccc1Cl [I-1-84],3.62
19,Cc1cc(Br)cc(C(=O)NCC#N)c1NC(=O)c1cc(Cn2ccc(C(F)(F)F)n2)nn1-c1ncccc1Cl [I-1-85],2.98
20,CNC(=O)c1cc(Cl)cc(C)c1NC(=O)c1cc(Cn2nc(C(F)(F)C(F)(F)F)nc2C(F)(F)F)nn1-c1ncccc1Cl [I-1-86],3.78
21,Cc1cccc(C(=O)N[C@@H](C)CS(C)(=O)=O)c1NC(=O)c1cc(Cn2nc(C(F)(F)F)nc2C(F)(F)F)nn1-c1ncccc1Cl [I-1-87],2.92
22,CNC(=O)c1cc(Cl)cc(C)c1NC(=O)c1cc(Cn2nnn(-c3ccc(C(F)(F)F)cc3)c2=O)nn1-c1ncccc1Cl [I-1-88],3.61
23,Cc1cc(Cl)cc(C(=O)NC(C)C)c1NC(=O)c1cc(Cn2nnn(-c3ccc(C(F)(F)F)cc3)c2=O)nn1-c1ncccc1Cl [I-1-89],3.96
24,CNC(=O)c1cc(Cl)cc(C)c1NC(=O)c1cc(Cn2nnn(-c3cc(C(F)(F)F)cc(C(F)(F)F)c3)c2=O)nn1-c1ncccc1Cl [I-1-90],4.08
25,Cc1cc(Cl)cc(C(=O)NC(C)C)c1NC(=O)c1cc(Cn2nnn(-c3cc(C(F)(F)F)cc(C(F)(F)F)c3)c2=O)nn1-c1ncccc1Cl [I-1-91],4.51
26,Cc1cccc(C(=O)NC(C)C[S+](C)[O-])c1NC(=O)c1cc(Cn2nc(C(F)(F)F)nc2C(F)(F)F)nn1-c1ncccc1Cl (stereo not shown) [I-1-92],2.65

# Same assay, conditions: reverse-phase C18 HPLC column; HPLC, reverse-phase column (C 18), 43° C., acidic range pH 2.7; read-out: logP
row,chromatographic logP,Structure (SMILES)
1,5.11,"Cc1cc(Cl)cc2c(=O)oc(-c3cc(Cn4nc(C(F)(F)F)cc4C(F)(F)F)nn3-c3ncccc3Cl)nc12 [Example 2, 2-[5-(3,5-Bistrifluoromethylpyrazol-1-ylmethyl)-2-(3-chloropyridin-2-yl)-2H-pyrazol-3-yl]-6-chloro-8-methylbenzo[d][1,3]oxazin-4-one]"
2,2.86,"O=C(O)c1cc(Cn2nc(C(F)(F)F)cc2C(F)(F)F)nn1-c1ncccc1Cl [Example 3, 5-(3,5-Bistrifluoromethylpyrazol-1-ylmethyl)-2-(3-chloropyridin-2-yl)-2H-pyrazole-3-carboxylic acid]"
3,3.71,"COC(=O)c1cc(Cn2nc(C(F)(F)F)cc2C(F)(F)F)nn1-c1ncccc1Cl [Example 4, Methyl 5-(3,5-bistrifluoromethylpyrazol-1-ylmethyl)-2-(3-chloropyridin-2-yl)-2H-pyrazole-3-carboxylate]"
4,1.55,"COC(=O)c1cc(COS(C)(=O)=O)nn1-c1ncccc1Cl [Example 5, Methyl 2-(3-chloropyridin-2-yl)-5-methanesulphonyloxymethyl-2H-pyrazole-3-carboxylate]"
5,1.26,"COC(=O)c1cc(CO)nn1-c1ncccc1Cl [Example 6, Methyl 2-(3-chloropyridin-2-yl)-5-hydroxymethyl-2H-pyrazole-3-carboxylate]"
6,1.97,"COC(=O)c1cc(C(=O)OC)n(-c2ncccc2Cl)n1 [Example 7, Dimethyl 1-(3-chloropyridin-2-yl)-1H-pyrazole-3,5-dicarboxylate]"
